Results from patent publication US12564598B2, “Nitric oxide-sensitive hydrogel” (POSTECH RESEARCH AND BUSINESS DEVELOPMENT FOUNDATION, priority 2021, dated 2026).

Assay: Degradation of crosslinking agent after incubation in saturated NO solution (1H NMR, FT-IR, UV-Vis)
Type: physicochemical
Conditions: incubation in a saturated NO solution; primary amine peak disappeared, benzotriazole formed
From the text: The mechanism by which the above synthesized crosslinking agent DA-NOCCL reacts with nitric oxide to degrade and the ^1H NMR, FT-IR, and UV-Vis absorption data confirming this are shown in FIGS. 4 and 5.

Structure (SMILES): C#CCCC(=O)Nc1ccc(NC(=O)CCC#C)c(N)c1 [DA-NOCCL]
- degradation in response to NO: can be degraded in response to NO
